Entries after “also recorded” stand apart in the source; their conditions may differ. Like-named read-outs stand apart in the source and are kept apart here.
Legend:
[1] = tested on: CRC cell lines HCT-116 and HT-29; assay: Cytotoxicity against CRC cell lines, summary over both lines (SRB assay); format: cell-based, human; conditions: for cytotoxicity against CRC cell lines, in words: HCT-116 and HT-29, with or without GSH; for IC50: read-out: IC50 in CRC cells
Description: (§1) The fraction of cell survival was calculated as follows. Survival fraction=(OD treated−blank)/(OD control−blank). […] Each experiment was repeated three times.

HCT-116 = assay: Cytotoxicity by SRB assay in HCT-116 cells; format: cell-based, human
Description: as §1

HT-29 = assay: Cytotoxicity by SRB assay in HT-29 cells
Description: Cancer cell lines were obtained from ATCC unless otherwise noted. HT-29 and HCT-116 cells were cultured in Dulbecco's Modified Eagle Medium (DMEM, Thermo Fisher Scientific) with 10% fetal bovine serum (FBS, Thermo Fisher Scientific) and 1% antibiotic-antimycotic (Thermo Fisher Scientific).
Briefly, CRC cells were seeded at a density of 5×10^3 cells/well in 96-well microtiter plates (100 μL/well), separated into two groups with or without GSH. After incubation for 24 hours, the culture medium was replaced by fresh medium (100 μL). […] After incubation, 10% cold trichloroacetic acid was gently added to each well and incubated at 4° C. for 1 h. The medium was removed, carefully washed with water, and dried at room temperature. […] The optical density (O.D.) was measured at 510 nm with Multi-Mode Microplate Reader (SpectraMax Paradigm, Beckman Coulter, U.S.). The fraction of cell survival was calculated as follows. Survival fraction=(OD treated−blank)/(OD control−blank). […] Each experiment was repeated three times.

[2] = Stability and drug release in GSH (RP-HPLC); format: in vitro ADME
Description: […] After incubation for the indicated time, samples were centrifuged to collect the clear supernatant and stored at −30° C. until analysis. RP-HPLC injections were carried out at the specified conditions, and the area of peak was integrated for further calculation.

[3] = Human plasma stability (RP-HPLC); format: in vitro ADME; conditions: 95% human plasma, 37° C.
Description: To access human plasma stability, synthesized conjugates were prepared in 95% human plasma. […] The mixture was centrifuged at 13,000 rpm for 5 min. […] For compounds 30 and 31, they were dissolved in DMA and added GSH (11.2 mM or 11.2 μM) solution which was prepared in sodium acetate buffer (10 mM, pH 5.0) in the ratio of 50/40 (v/v, drug in DMA/GSH solution) for final GSH of 5 mM or 5 μM in pH 7.0, respectively. After incubation for the indicated time, samples were centrifuged to collect the clear supernatant and stored at −30° C. until analysis. RP-HPLC injections were carried out at the specified conditions, and the area of peak was integrated for further calculation.

[4] = Body weight changes in the CRC mice model; format: in vivo, BALB/c mice; conditions: during treatment in CRC mice model
Description: Azoxymethane (AOM)-induced murine CRC model was applied to model human CRC. BALB/c mice (6 weeks of age, male) were intraperitoneally (i.p.) injected once every two weeks with AOM (10 mg/kg body weight) or the PBS vehicle. Seven days after each AOM injection, 2% dextran sulfate sodium (DSS) was given in the drinking water for four days, followed by 3 days of regular water. This cycle was repeated three times. The mice were randomly divided into eight groups (n=5), on day 60 after the first AOM treatment. […] Irinotecan (20 mg/kg), compound 31 (20 mg/kg), and irinotecan+compound 17 (20 mg/kg of irinotecan and 14 mg/kg of compound 17) were injected i.p. q.o.d for two weeks. […] Tumor volumes and body weights were recorded at sacrifice. The tumors were counted under a dissecting microscope, and the area covered by tumors was measured by imaging software (AxioVision LE 4.8.2.0).

[5] = tested on: orthotopic CRC mice model; assay: Orthotopic AOM/DSS-induced CRC mice model, tumor area; format: in vivo, BALB/c mice; conditions: SN-38 series; i.v. once every two days for two weeks; 40 mg/kg vs irinotecan 40 mg/kg
Description: Azoxymethane (AOM)-induced murine CRC model was applied to model human CRC. BALB/c mice (6 weeks of age, male) were intraperitoneally (i.p.) injected once every two weeks with AOM (10 mg/kg body weight) or the PBS vehicle. Seven days after each AOM injection, 2% dextran sulfate sodium (DSS) was given in the drinking water for four days, followed by 3 days of regular water. This cycle was repeated three times. The mice were randomly divided into eight groups (n=5), on day 60 after the first AOM treatment. […] Tumor volumes and body weights were recorded at sacrifice. The tumors were counted under a dissecting microscope, and the area covered by tumors was measured by imaging software (AxioVision LE 4.8.2.0).

[6] = Homo sapiens, HCT-116, read-out: IC50 HCT-116 5 mM GSH, 48 h, 5 mM GSH
[7] = Homo sapiens, HCT-116, 48 h, w/o GSH, read-out: IC50 HCT-116 w/o GSH
[8] = Homo sapiens, HT-29, 48 h, read-out: IC50 HT-29 5 mM GSH
[9] = Homo sapiens, HT-29, 48 h, read-out: IC50 HT-29 w/o GSH
[10] = Homo sapiens, HCT-116, read-out: IC50 HCT-116 5 mM GSH, 72 h, prepared in DMA, 5 mM GSH
[11] = Homo sapiens, HCT-116, 48 h, prepared in DMSO, read-out: IC50 HCT-116
[12] = Homo sapiens, HCT-116, 72 h, prepared in DMA, w/o GSH, read-out: IC50 HCT-116 w/o GSH
[13] = Homo sapiens, HT-29, 48 h, read-out: IC50 HT-29
[14] = 72 h, prepared in DMA, w/o GSH, read-out: IC50 HCT-116 w/o GSH
[15] = read-out: IC50 HCT-116 5 mM GSH, 72 h, prepared in DMA, 5 mM GSH
[16] = read-out: IC50 HT-29 5 mM GSH, 48 h, prepared in DMA, 5 mM GSH
[17] = read-out: IC50 HT-29 w/o GSH, 48 h, prepared in DMA, w/o GSH
[18] = read-out: IC50 HT-29, 48 h, prepared in DMSO

Row | SMILES | cytotoxicity against CRC cell lines, in words [1] | IC50 (HCT-116; [6]) [µM] | IC50 (HCT-116; [7]) [µM] | IC50 (HT-29; [8]) [µM] | IC50 (HT-29; [9]) [µM] | IC50 (HCT-116; [10]) [µM] | IC50 (HCT-116; [11]) [µM] | IC50 (HCT-116; [12]) [µM] | IC50 (HT-29; [13]) [µM] | further results
1 | O=C(CCCCCN1C(=O)CC(SCCOCCOCCOc2cc(O)c(C(=O)CCc3ccc(O)cc3)c(O[C@@H]3O[C@H](CO)[C@@H](O)C(O)[C@H]3O)c2)C1=O)OCn1cc(F)c(=O)[nH]c1=O (stereo partly drawn) [Compound 4, (5-Fluoro-2,4-dioxo-3,4-dihydropyrimidin-1(2H)-yl)methyl 6-(3-((2-(2-(2-(3-hydroxy-4-(3-(4-hydroxyphenyl)propanoyl)-5-(((2S,3R,5S,6R)-3,4,5-trihydroxy-6-(hydroxymethyl)tetrahydro-2H-pyran-2-yl)oxy)phenoxy)ethoxy)ethoxy)ethyl)thio)-2,5-dioxopyrrolidin-1-yl)hexanoate] | poorly cytotoxic | > 100 | 97.4 ± 20.3 | 93.6 ± 9.4 | > 100 | – | – | – | – | –
2 | O=C(CCCCCN1C(=O)CC(SCCOCCOCCOc2cc(O)c(C(=O)CCc3ccc(O)cc3)c(O)c2)C1=O)OCn1cc(F)c(=O)[nH]c1=O (centres unmarked) [Compound 5, (5-Fluoro-2,4-dioxo-3,4-dihydropyrimidin-1(2H)-yl)methyl 6-(3-((2-(2-(2-(3,5-dihydroxy-4-(3-(4-hydroxyphenyl)propanoyl)phenoxy)ethoxy)ethoxy)ethyl)thio)-2,5-dioxopyrrolidin-1-yl)hexanoate] | poorly cytotoxic | 82.8 ± 4.18 | 75 ± 13.7 | 86.9 ± 2.9 | 43.7 ± 5 | – | – | – | – | release of 5-FU, in words ([2]; 5 mM GSH, after 48 h): Little 5-FU was released; half-life in human plasma [3]: 48 min
3 | O=C(CCCSSCCOCCOCCOc1cc(O)c(C(=O)CCc2ccc(O)cc2)c(O[C@@H]2O[C@H](CO)[C@@H](O)C(O)[C@H]2O)c1)OCn1cc(F)c(=O)[nH]c1=O (stereo partly drawn) [Compound 6, (5-fluoro-2,4-dioxo-3,4-dihydropyrimidin-1(2H)-yl)methyl 4-((2-(2-(2-(3-hydroxy-4-(3-(4-hydroxyphenyl)propanoyl)-5-(((2S,3R,5S,6R)-3,4,5-trihydroxy-6-(hydroxymethyl)tetrahydro-2H-pyran-2-yl)oxy)phenoxy)ethoxy)ethoxy)ethyl)disulfanyl)butanoate] | – | 23.8 | 54.9 | 8 ± 0.52 | 59.8 ± 7.93 | – | – | – | – | half-life at 2.5 mM ([2]; PBS containing GSH, pH 7.4, highly reductive environments, read-out: half-lives in highly reductive environments): < 300 min
4 | O=C(CCc1cn(CCOCCOCCOc2cc(O)c(C(=O)CCc3ccc(O)cc3)c(O[C@@H]3O[C@H](CO)[C@@H](O)C(O)[C@H]3O)c2)nn1)OCn1cc(F)c(=O)[nH]c1=O (stereo partly drawn) [Compound 8, (5-Fluoro-2,4-dioxo-3,4-dihydropyrimidin-1(2H)-yl)methyl 3-(1-(2-(2-(2-(3-hydroxy-4-(3-(4-hydroxyphenyl)propanoyl)-5-(((2S,3R,5S,6R)-3,4,5-trihydroxy-6-(hydroxymethyl)tetrahydro-2H-pyran-2-yl)oxy)phenoxy)ethoxy)ethoxy)ethyl)-1H-1,2,3-triazol-4-yl)propanoate] | poorly cytotoxic | – | > 100 | – | > 100 | – | – | – | – | –
5 | O=C(CCc1ccc(O)cc1)c1c(O)cc(OCCOCCOCCS)cc1O [Compound 17, 1-(2,6-Dihydroxy-4-(2-(2-(2-mercaptoethoxy)ethoxy)ethoxy)phenyl)-3-(4-hydroxyphenyl)propan-1-one] | – | 15.9 ± 0.89 | 15.5 ± 0.72 | 24.2 ± 0.4 | 29.1 ± 6.14 | 15.9 ± 0.89 | 15.5 ± 0.72 | 15.5 ± 0.72 | 29.1 ± 6.14 | IC50 ([1]; Homo sapiens, HCT-116 and HT-29, over Tables 1 to 3): 15 to 30 µM
6 | CCc1c2c(nc3ccc(OC(=O)OCCSSCCOCCOCCOc4ccc(O)c(C(=O)CCc5ccc(O)cc5)c4O[C@@H]4O[C@H](CO)[C@@H](O)[C@H](O)[C@H]4O)cc13)-c1cc3c(c(=O)n1C2)COC(=O)[C@]3(O)CC [Compound 30, (S)-4,11-diethyl-4-hydroxy-3,14-dioxo-3,4,12,14-tetrahydro-1H-pyrano[3′,4′:6,7]indolizino[1,2-b]quinolin-9-yl(2-((2-(2-(2-(4-hydroxy-3-(3-(4-hydroxyphenyl)propanoyl)-2-(((2S,3R,4S,5S,6R)-3,4,5-trihydroxy-6-(hydroxymethyl)tetrahydro-2H)pyran-2-yl)oxy)phenoxy)ethoxy)ethoxy)ethyl)disulfanyl)ethyl) carbonate] | less or similar cytotoxicity | – | – | – | – | – | – | – | – | release rate of SN-38 ([2]; 5 mM GSH): about 60%; half-life in human plasma [3]: 20 min; IC50 (HCT-116; [14]): 0.00244 ± 0.00017 µM; IC50 (HCT-116; [15]): 0.00257 ± 0.00013 µM; IC50 (HT-29; [16]): 0.0301 ± 0.0026 µM; IC50 (HT-29; [17]): 0.0396 ± 0.00345 µM
7 | CCc1c2c(nc3ccc(OCc4ccc(NC(=O)[C@H](CCCNC(N)=O)NC(=O)[C@@H](NC(=O)CCCCN5C(=O)CC(SCCOCCOCCOc6cc(O)c(C(=O)CCc7ccc(O)cc7)c(O)c6)C5=O)C(C)C)cc4)cc13)-c1cc3c(c(=O)n1C2)COC(=O)[C@]3(O)CC (some centres unmarked) [Compound 38] | – | – | – | – | – | – | – | – | – | body weight change, in words [4]: did not decrease the body weight; also recorded: no significant change in the body weight; cytotoxicity in HT-29 cell line, in words (HT-29): less sensitive; IC50 (HT-29; [18]): > 100 µM; anti-tumor efficacy (tumor area), in words [5]: good therapeutic efficacy than irinotecan; also recorded: better anti-tumor efficacy than irinotecan
8 | O=C(CCc1ccc(O)cc1)c1c(O)cc(O)cc1O [Phloretin (3), phloretin, reference compound] | – | – | – | > 100 | > 100 | 77.6 ± 3.42 | > 100 | > 100 | > 100 | –
9 | O=C(CCc1ccc(O)cc1)c1c(O)cc(O)cc1O[C@@H]1O[C@H](CO)[C@@H](O)[C@H](O)[C@H]1O [Phlorizin (2), phlorizin, reference compound] | – | – | – | > 100 | > 100 | > 100 | > 100 | > 100 | > 100 | –
10 | CCc1c2c(nc3ccc(O)cc13)-c1cc3c(c(=O)n1C2)COC(=O)[C@]3(O)CC [SN-38 (28), SN-38, reference compound] | – | – | – | – | – | – | – | – | – | IC50 ([1]; HCT-116 and HT-29, Tables 2 and 3): 0.002 to 0.43 µM; IC50 (HCT-116; 48 h, prepared in DMSO, read-out: IC50 HCT-116): 0.0549 ± 0.00386 µM; IC50 (HCT-116; [14]): 0.00237 ± 4e-05 µM; IC50 (HCT-116; [15]): 0.00288 ± 8e-05 µM; IC50 (HT-29; [16]): 0.0113 ± 0.00073 µM; IC50 (HT-29; [18]): 0.43 ± 1e-05 µM; IC50 (HT-29; [17]): 0.0134 ± 0.0004 µM

Reference: US12458702B2 (NATIONAL TAIWAN UNIVERSITY, priority 2022, dated 2025)
